Patent publication US10966957B2, “Method of treating cancer with combinations of histone deacetylase inhibitors (HDAC1) substances” (Research Cancer Institute of America, priority 2011, dated 2021)

Experiments:
[1] = tested on: prostate cancer cells; conditions: cited from earlier work
[2] = tested on: refractory solid tumor malignancies; conditions: cited from earlier work
[3] = tested on: MBT-2 bladder transitional cell carcinoma, B16-F10 melanoma and LL/2 Lewis lung carcinoma; conditions: depending on concentrations; cited from earlier work
[4] = tested on: patients with cancer; assay type: in vivo, human; conditions: octreotide subcutaneously at 50-400 mcgs
From the text: As of October 2011, 40 patient charts were selected randomly and reviewed. The inclusion criteria were diagnosis of cancer. No patients were excluded. Patients were aged 27 to 83 years. All were diagnosed by their oncologist/physician and were offered standard conventional treatment of surgery, traditional chemotherapy or radiation.
The patients were managed based on unique developed protocols that were designed in correlation with available research studies and clinical trials that implicate using specific natural and synthetic IV therapies. IV therapies are targeted at epigenetic level and consist of antioxidants, quercetin, DCA, sodium phenyl butyrate, and lipoic acid separately or in combination. All patients received one or more of such treatments. […] Doses of each treatment remained the same or close on each treatment, Quercetin was given intravenously at the dose 0.5 to 1.0 gram (50 mg/ml).
The progression of disease was measures during the course of treatment through tumor markers, Imaging studies and markers for cancer growth, necrosis, LDH, and inflammation, CRP, as well as the Natural killer cell activity or lymphocyte count and Circulatory tumor cells.

[5] = tested on: cancer deemed no longer treatable by conventional methods; conditions: cited from earlier work
[6] = tested on: tyrosine kinase; conditions: measured in 11 subjects; cited from earlier work
[7] = tested on: acites tumor cells; conditions: injected peritoneally; cited from earlier work
[8] = tested on: human squamous cell carcinoma line; conditions: injected interperitoneally; minimal effects on surrounding normal cells; cited from earlier work

Compound: Sodium phenylbutyrate [SPB]
- Potency relative to phenylacetate [1]: more potent than phenylacetate
- Toxicity of oral doses ([2]; oral doses up to 36 grams per day): minimal toxicity
- Patients with stable disease for more than 6 months while on the drug ([2]; oral): 25%

Compound: O=C(O)CCCCC1CCSS1 (centres unmarked) [Lipoic acid]
- Reduction of cell number [3]: 10-50%

Compound: Octreotide
- Lowering of IgF-1 by octreotide in the protocols [4]: lowering the IgF-1 significantly

Compound: O=c1c(O)c(-c2ccc(O)c(O)c2)oc2cc(O)cc(O)c12 [Quercetin]
- Dose recommended for phase 2 studies ([5]; intravenous): ≤ 1400 mg/m2
- Patients with sustained decreases in unique cancer markers ([5]; of 50 patients, metastatic hepatocellular carcinoma and stage 4 metastatic ovarian cancer): two
- Suppression as defined by the radiological criteria of WHO ([5]; up to 1700 mg/m2 intravenous for 3 weeks, 50 patients): None of the patients achieved suppression
- Subjects with a decrease in tyrosine kinase levels [6]: 9
- Increase in lifespan [7]: 20%
- Inhibition of cancer growth [8]: selective inhibition of cancer growth
